Results from the supplement of paper PMC10307832.

Columns and labels:
Assay in all cases: relative viability (nuclei count vs DMSO), 5 days (fraction); higher = more cells survive
[1] = compound: CN(C)C(=N)NC(=N)N [Metformin] + Cc1nc(Nc2ncc(C(=O)Nc3c(C)cccc3Cl)s2)cc(N2CCN(CCO)CC2)n1 [Dasatinib] (partner 0.075 µM)
How it was run: (§1)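 One day after seeding in 1536-well plates, lung cancer cell lines were dosed by pin tool. Dosing was either single-drug or a fixed anchor-drug dose plus five library-drug doses (not always all listed) in √10 steps. After 5 days, nuclei were stained in one fix-and-stain step and counted on 4× images, and relative viability is the nuclei count of treated wells over that of vehicle wells, given as the median of duplicate plates.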

[2] = compound: CN(C)C(=N)NC(=N)N [Metformin] + O=C(CCCCCCC(=O)Nc1ccccc1)NO [Vorinostat] (partner 1 µM)
How it was run: as §1

[3] = compound: N#CC1(c2ccc(NC(=O)c3cccnc3NCc3ccncc3)cc2)CCCC1 [Apatinib] + Nc1ncn([C@H]2C[C@H](O)[C@@H](CO)O2)c(=O)n1 [Decitabine] (partner 2 µM)
How it was run: as §1

[4] = compound: N#CC1(c2ccc(NC(=O)c3cccnc3NCc3ccncc3)cc2)CCCC1 [Apatinib] + CS(=O)(=O)CCNCc1ccc(-c2ccc3ncnc(Nc4ccc(OCc5cccc(F)c5)c(Cl)c4)c3c2)o1 [Lapatinib] (partner 2 µM)
How it was run: as §1

Cell Line: NCI-H460
- relative viability ([1]; first compound 10 µM): 0.402
- relative viability ([1]; first compound 31.62 µM): 0.546
- relative viability ([1]; first compound 100 µM): 0.353
- relative viability ([1]; first compound 316.23 µM): 0.43
- relative viability ([1]; first compound 1000 µM): 0.457
- relative viability ([2]; first compound 31.62 µM): 0.667
- relative viability ([2]; first compound 100 µM): 0.542
- relative viability ([2]; first compound 316.23 µM): 0.581
- relative viability ([2]; first compound 1000 µM): 0.659
- relative viability ([3]; first compound 0.08 µM): 0.497
- relative viability ([3]; first compound 0.253 µM): 0.457
- relative viability ([3]; first compound 0.8 µM): 0.43
- relative viability ([3]; first compound 2.53 µM): 0.447
- relative viability ([3]; first compound 8 µM): 0.477
- relative viability ([4]; first compound 0.08 µM): 0.915
- relative viability ([4]; first compound 0.253 µM): 0.93
- relative viability ([4]; first compound 0.8 µM): 0.796
- relative viability ([4]; first compound 2.53 µM): 0.905
- relative viability ([4]; first compound 8 µM): 0.777
